{"source": "paper PMC10382584", "about": "“Macrocyclization of linear molecules by deep learning to facilitate macrocyclic drug candidates discovery” (Nature Communications, 2023)", "key": {"DSS-induced colitis mice": {"system": "DSS-induced colitis mice", "assay": "In vivo efficacy study, DSS-induced colitis model", "parameters": "species or system male BALB/c mice", "settings": "for DAI score (Fig. 6b) / Body weight (Fig. 6a): individual mice", "method": "Model mice were divided into four groups and eight mice were included in each group on day 8. […] Meanwhile, solvent was given intragastrically to the control group and model group. On day 15, the mice were sacrificed, and the length and weight of each colon were measured.\nBody weight, the stool consistency, and the presence of blood in feces were recorded daily in the morning. […] The maximum score was 9, which was the sum of the scores. About 1-cm colon tissue, which is 0.5 cm away from the anal margin, was collected, and the ileocecal area was used for histopathological examination. After H&E staining, the tissues were scored under single-blind conditions to evaluate the levels of inflammation and tissue damage in the colons following the criteria proposed by ref. [62]. Statistical analyses were performed using SPSS v24.0."}, "HEL cells": {"system": "HEL cells", "assay": "Cell proliferation assay (CCK-8), HEL cells", "type": "cell-based, human", "settings": "for Inhibition (%): single wells, replicates 1 and 2"}, "In vivo PK study in mice": {"assay": "In vivo PK study in mice;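 for all read-outs here: mice dosed intravenously or orally, three animals per time point, plasma drug levels quantified by LC-MS/MS, PK parameters derived by noncompartmental analysis in Phoenix WinNonLin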", "settings": "for concentration at time point (concentration-time data, Supplementary Fig. 8): individual mice 1-3; for AUCinf / Cmax / T1/2 / Tmax: mice", "method": "The mice were separately administered to a group of three mice per time point for intravenous (5 mg/kg) or oral administration (5 mg/kg). […] Then the samples were separated by centrifugation and analyzed by LC-MS/MS (XEVO TQ-S) to determine the plasma drug concentrations. The PK parameters were calculated using the noncompartment model with Phoenix WinNonLin v8.0. The animal experimental procedures were approved by the Medicine Research Ethics Committee of Hangzhou Leading Pharmatech Co., Ltd."}}, "note": "Several values for one entry are separate records, joined by “and”; a condition that tells them apart may be missing. Equal entries are not always repeated. Where two headings read alike, the source gives them in different places.", "data": [{"smiles": "Cc1cnc2nc1Nc1cccc(c1)COCC=CCOCc1cc(ccc1OCCN1CCCC1)N2", "note": "[Compound 3]", "values": [{"measurement": "DAI score (Fig. 6b)", "setting": "DSS-induced colitis mice; Compound 3 5 mg/kg, day 11", "value": 0}, {"measurement": "Body weight (Fig. 6a)", "setting": "DSS-induced colitis mice; Compound 3 5 mg/kg, day 11, 5 mg/kg", "value": "20.1 and 15.7 and 22 (2×) and 22.9 and 16.7 and 22.8"}, {"measurement": "DAI score (Fig. 6b)", "setting": "DSS-induced colitis mice; Compound 3 5 mg/kg, day 12, 5 mg/kg", "value": "0 (6×) and 1"}, {"measurement": "Body weight (Fig. 6a)", "setting": "DSS-induced colitis mice; Compound 3 5 mg/kg, day 12, 5 mg/kg, in g (unit assumed)", "value": "21 and 16.6 and 22.3 and 23 and 17.2 and 22.1 and 22.9"}, {"measurement": "Body weight (Fig. 6a)", "setting": "DSS-induced colitis mice; Compound 3 5 mg/kg, day 13, 5 mg/kg, in g (unit assumed)", "value": "21.7 and 17.7 and 21.8 and 23.1 and 18 and 22.3 and 22.6"}, {"measurement": "Body weight (Fig. 6a)", "setting": "DSS-induced colitis mice; Compound 3 5 mg/kg, day 14, 5 mg/kg", "value": "21.5 and 17.4 and 22.3 and 23.4 and 19.2 and 22.4 (2×)"}, {"measurement": "HE staining score (Fig. 6d)", "setting": "DSS-induced colitis mice; Compound 3 5 mg/kg, individual colon tissues (n = 7), 5 mg/kg", "value": "3 and 1 and 2"}, {"measurement": "symptoms in DSS-induced murine colitis", "setting": "DSS-induced colitis mice; compound 3 5 mg/kg, Fedratinib 10 mg/kg", "value": "ameliorate the symptoms"}, {"measurement": "Inhibition (%)", "setting": "HEL cells; HEL cell lines, 0.0977 μM", "value": "7.532% and 3.479% and 4.355% and 9.373% and 0.491% and 6.308%"}, {"measurement": "Inhibition (%)", "setting": "HEL cells; HEL cell lines, 0.1953 μM", "value": "13.777% and 7.751% and 6.875% and 6.544% and 1.513% and 5.600%"}, {"measurement": "Inhibition (%)", "setting": "HEL cells; HEL cell lines, 0.3906 μM", "value": "19.145% and 12.682% and 3.259% and 5.522% and 6.779% and 5.600%"}, {"measurement": "Inhibition (%)", "setting": "HEL cells; HEL cell lines, 0.7813 μM", "value": "21.994% and 15.749% and 13.120% and 10.788% and 3.085% and 13.618%"}, {"measurement": "Inhibition (%)", "setting": "HEL cells; HEL cell lines, 1.5625 μM", "value": "37.004% and 30.321% and 23.090% and 24.936% and 24.700% and 25.722%"}, {"measurement": "Inhibition (%)", "setting": "HEL cells; HEL cell lines, 3.1250 μM, 3.125 µM", "value": "60.340% and 50.260% and 45.440% and 49.460% and 46.787% and 48.123%"}, {"measurement": "Inhibition (%)", "setting": "HEL cells; HEL cell lines, 6.2500 μM, 6.25 µM", "value": "81.375% and 75.240% and 74.473% and 74.140% and 73.276% and 76.577%"}, {"measurement": "Inhibition (%)", "setting": "HEL cells; HEL cell lines, 12.5000 μM, 12.5 µM", "value": "87.949% and 81.375% and 82.142% and 84.437% and 81.607% and 79.564%"}, {"measurement": "IC50", "setting": "HEL cells; HEL cell lines, mean of 2 replicates, read-out: IC50/μM mean, cellular antiproliferative activity", "value": 3.05, "unit": "µM"}, {"measurement": "IC50", "setting": "HEL cells; HEL cell lines, single-replicate fits, read-out: IC50/μM (individual replicates), cellular antiproliferative activity", "value": "3.33 µM and 2.78 µM"}, {"measurement": "IC50", "setting": "HEL cells; HEL cells, 72 h, mean ± SD, read-out: Cellular Antiproliferative Activity (IC50) HEL", "value": "3.06 ± 0.39", "unit": "µM"}, {"measurement": "concentration at time point (concentration-time data, Supplementary Fig. 8)", "setting": "In vivo PK study in mice; iv 5 mg/kg, 0.5 h, 5 mg/kg", "value": "112.17 and 96.91 and 108.01"}, {"measurement": "concentration at time point (concentration-time data, Supplementary Fig. 8)", "setting": "In vivo PK study in mice; iv 5 mg/kg, 1 h, 5 mg/kg", "value": "33.98 and 41.85 and 29.29"}, {"measurement": "concentration at time point (concentration-time data, Supplementary Fig. 8)", "setting": "In vivo PK study in mice; iv 5 mg/kg, 2 h, 5 mg/kg", "value": "22.85 and 22.08 and 24.61"}, {"measurement": "concentration at time point (concentration-time data, Supplementary Fig. 8)", "setting": "In vivo PK study in mice; iv 5 mg/kg, 4 h, 5 mg/kg", "value": "23.46 and 31.4 and 25.29"}, {"measurement": "concentration at time point (concentration-time data, Supplementary Fig. 8)", "setting": "In vivo PK study in mice; iv 5 mg/kg, 8 h, 5 mg/kg", "value": "17.79 and 10.67 and 14.54"}, {"measurement": "concentration at time point (concentration-time data, Supplementary Fig. 8)", "setting": "In vivo PK study in mice; iv 5 mg/kg, 24 h, 5 mg/kg", "value": "2.18 and 0 (2×)"}, {"measurement": "AUCinf", "setting": "In vivo PK study in mice; iv (5 mg/kg)", "value": 443.20, "unit": "ng·h/mL"}, {"measurement": "Cmax", "setting": "In vivo PK study in mice; iv (5 mg/kg)", "value": 351.23, "unit": "ng/mL"}, {"measurement": "T1/2", "setting": "In vivo PK study in mice; iv (5 mg/kg)", "value": 0.52, "unit": "h"}, {"measurement": "Tmax", "setting": "In vivo PK study in mice; iv (5 mg/kg)", "value": 0.083, "unit": "h"}, {"measurement": "AUCinf", "setting": "In vivo PK study in mice; po (5 mg/kg)", "value": 114.69, "unit": "ng·h/mL"}, {"measurement": "Cmax", "setting": "In vivo PK study in mice; po (5 mg/kg)", "value": 6.64, "unit": "ng/mL"}, {"measurement": "T1/2", "setting": "In vivo PK study in mice; po (5 mg/kg)", "value": 10.07, "unit": "h"}, {"measurement": "Tmax", "setting": "In vivo PK study in mice; po (5 mg/kg)", "value": 4.00, "unit": "h"}, {"measurement": "concentration at time point (concentration-time data, Supplementary Fig. 8)", "setting": "In vivo PK study in mice; po 5 mg/kg, 1 h, 5 mg/kg", "value": "2.46 and 4.26 and 2.81"}, {"measurement": "concentration at time point (concentration-time data, Supplementary Fig. 8)", "setting": "In vivo PK study in mice; po 5 mg/kg, 2 h, 5 mg/kg", "value": "3.59 and 4.51 and 5.67"}, {"measurement": "concentration at time point (concentration-time data, Supplementary Fig. 8)", "setting": "In vivo PK study in mice; po 5 mg/kg, 3 h, 5 mg/kg", "value": "4.59 and 4.64 and 5.68"}, {"measurement": "concentration at time point (concentration-time data, Supplementary Fig. 8)", "setting": "In vivo PK study in mice; po 5 mg/kg, 4 h, 5 mg/kg", "value": "6.18 and 5.41 and 8.34"}, {"measurement": "concentration at time point (concentration-time data, Supplementary Fig. 8)", "setting": "In vivo PK study in mice; po 5 mg/kg, 6 h, 5 mg/kg", "value": "4.85 and 6.09 and 5.97"}, {"measurement": "concentration at time point (concentration-time data, Supplementary Fig. 8)", "setting": "In vivo PK study in mice; po 5 mg/kg, 8 h, 5 mg/kg", "value": "4.94 and 5.49 and 4.7"}, {"measurement": "concentration at time point (concentration-time data, Supplementary Fig. 8)", "setting": "In vivo PK study in mice; po 5 mg/kg, 24 h", "value": 0}]}]}
